# Assay results published in PubChem BioAssay AID1963978 (Molecular Pharmacology Branch, DTP, NCI, 2024).
# pIC50: −log10 of the molar value.
# System: 616215-338-R-J1-PDC spheroids with HUVEC/MSC, viability
# Assay: Anticancer human tumor 616215-338-R-J1-PDC patient-derived colon adenocarcinoma cell line growth inhibition [PI3K]
# Conditions: for pIC50: curve of first compound; for viability, T/C: stronger effect = lower value
# Procedure, shortened: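 Tumor cells grown as multi-cell spheroids with HUVEC endothelial cells and MSC fibroblast-like stroma were treated with targeted agents combined with inavolisib, alpelisib, duvelisib or copanlisib. Doses fell in half-log steps from near clinical Cmax, else from 10 microM. Viability was measured.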
# [1] = second compound 0.0316 µM, first compound 0.0316 µM
# [2] = second compound 0.0316 µM, first compound 0.1 µM
# [3] = second compound 0.0316 µM, first compound 0.316 µM
# [4] = second compound 0.0316 µM, first compound 1 µM
# [5] = second compound 0.0316 µM, first compound 3.16 µM
# [6] = second compound 0.0316 µM, first compound 10 µM
# [7] = second compound 0.1 µM, first compound 0.0316 µM
# [8] = second compound 0.1 µM, first compound 0.1 µM
# [9] = second compound 0.1 µM, first compound 0.316 µM
# [10] = second compound 0.1 µM, first compound 1 µM
# [11] = second compound 0.1 µM, first compound 3.16 µM
# [12] = second compound 0.1 µM, first compound 10 µM
# [13] = second compound 0.316 µM, first compound 0.0316 µM
# [14] = second compound 0.316 µM, first compound 0.1 µM
# [15] = second compound 0.316 µM, first compound 0.316 µM
# [16] = second compound 0.316 µM, first compound 1 µM
# [17] = second compound 0.316 µM, first compound 3.16 µM
# [18] = second compound 0.316 µM, first compound 10 µM
# [19] = second compound 1 µM, first compound 0.0316 µM
# [20] = second compound 1 µM, first compound 0.1 µM
# [21] = second compound 1 µM, first compound 0.316 µM
# [22] = second compound 1 µM, first compound 1 µM
# [23] = second compound 1 µM, first compound 3.16 µM
# [24] = second compound 1 µM, first compound 10 µM
# [25] = second compound 3.16 µM, first compound 0.0316 µM
# [26] = second compound 3.16 µM, first compound 0.1 µM
# [27] = second compound 3.16 µM, first compound 0.316 µM
# [28] = second compound 3.16 µM, first compound 1 µM
# [29] = second compound 10 µM, first compound 0.0316 µM
# [30] = second compound 10 µM, first compound 0.1 µM
# [31] = second compound 10 µM, first compound 0.316 µM
# [32] = second compound 10 µM, first compound 1 µM
# 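Note: spheroids exposed to agents for seven days before the viability read.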
smiles,measurement,setting,value
CC1(C)CCC(CN2CCN(c3ccc(C(=O)NS(=O)(=O)c4ccc(NCC5CCOCC5)c([N+](=O)[O-])c4)c(Oc4cnc5[nH]ccc5c4)c3)CC2)=C(c2ccc(Cl)cc2)C1 + Cc1nc(NC(=O)N2CCCC2C(N)=O)sc1-c1ccnc(C(C)(C)C(F)(F)F)c1,pIC50,second compound 0.0316 µM,5.28
same,pIC50,second compound 0.1 µM,5.30
same,pIC50,second compound 0.316 µM,5.30
same,pIC50,second compound 1 µM,5.29
same,pIC50,second compound 3.16 µM,5.27
same,pIC50,second compound 10 µM,5.35
same,"viability, T/C",[1],95.6%
same,"viability, T/C",[2],98.9%
same,"viability, T/C",[3],108%
same,"viability, T/C",[4],102%
same,"viability, T/C",[5],86.4%
same,"viability, T/C",[6],2.58%
same,"viability, T/C",[7],97.4%
same,"viability, T/C",[8],92.3%
same,"viability, T/C",[9],95.8%
same,"viability, T/C",[10],104%
same,"viability, T/C",[11],81.5%
same,"viability, T/C",[12],1.97%
same,"viability, T/C",[13],98.5%
same,"viability, T/C",[14],97.1%
same,"viability, T/C",[15],90.5%
same,"viability, T/C",[16],97.7%
same,"viability, T/C",[17],81%
same,"viability, T/C",[18],2.29%
same,"viability, T/C",[19],103%
same,"viability, T/C",[20],92.3%
same,"viability, T/C",[21],102%
same,"viability, T/C",[22],93%
same,"viability, T/C",[23],85.3%
same,"viability, T/C",[24],0.61%
same,"viability, T/C",[25],95.6%
same,"viability, T/C",[26],99.4%
same,"viability, T/C",[27],101%
same,"viability, T/C",[28],97.9%
same,"viability, T/C","second compound 3.16 µM, first compound 3.16 µM",91.9%
same,"viability, T/C","second compound 3.16 µM, first compound 10 µM",0.6%
same,"viability, T/C",[29],92.8%
same,"viability, T/C",[30],99.9%
same,"viability, T/C",[31],94.8%
same,"viability, T/C",[32],87.1%
same,"viability, T/C","second compound 10 µM, first compound 3.16 µM",72.4%
same,"viability, T/C","second compound 10 µM, first compound 10 µM",0.39%
CC(Cn1ccc(-c2ccc(C#N)c(Cl)c2)n1)NC(=O)c1cc(C(C)O)[nH]n1 (stereo unspecified) + CC(Nc1ccc2c(c1)OCCn1cc(N3C(=O)OCC3C(F)F)nc1-2)C(N)=O,pIC50,second compound 0.00316 µM,< 5.00
same,pIC50,second compound 0.01 µM,< 5.00
same,pIC50,second compound 0.0316 µM,< 5.00
same,pIC50,second compound 0.1 µM,< 5.00
same,pIC50,second compound 0.316 µM,< 5.00
same,pIC50,second compound 1 µM,< 5.00
same,"viability, T/C","second compound 0.00316 µM, first compound 0.0316 µM",90.8%
same,"viability, T/C","second compound 0.00316 µM, first compound 0.1 µM",94%
same,"viability, T/C","second compound 0.00316 µM, first compound 0.316 µM",91.2%
same,"viability, T/C","second compound 0.00316 µM, first compound 1 µM",93.6%
same,"viability, T/C","second compound 0.00316 µM, first compound 3.16 µM",92.4%
same,"viability, T/C","second compound 0.00316 µM, first compound 10 µM",94.3%
same,"viability, T/C","second compound 0.01 µM, first compound 0.0316 µM",89.3%
same,"viability, T/C","second compound 0.01 µM, first compound 0.1 µM",105%
same,"viability, T/C","second compound 0.01 µM, first compound 0.316 µM",102%
same,"viability, T/C","second compound 0.01 µM, first compound 1 µM",92.4%
same,"viability, T/C","second compound 0.01 µM, first compound 3.16 µM",92.3%
same,"viability, T/C","second compound 0.01 µM, first compound 10 µM",104%
same,"viability, T/C",[1],94.4%
same,"viability, T/C",[2],105%
same,"viability, T/C",[3],90.1%
same,"viability, T/C",[4],101%
same,"viability, T/C",[5],96.3%
same,"viability, T/C",[6],101%
same,"viability, T/C",[7],107%
same,"viability, T/C",[8],88%
same,"viability, T/C",[9],96.8%
same,"viability, T/C",[10],102%
same,"viability, T/C",[11],105%
same,"viability, T/C",[12],94.4%
same,"viability, T/C",[13],109%
same,"viability, T/C",[14],104%
same,"viability, T/C",[15],107%
same,"viability, T/C",[16],101%
same,"viability, T/C",[17],101%
same,"viability, T/C",[18],110%
same,"viability, T/C",[19],101%
same,"viability, T/C",[20],99.8%
same,"viability, T/C",[21],104%
same,"viability, T/C",[22],103%
same,"viability, T/C",[23],99.4%
same,"viability, T/C",[24],97.8%
CCN1CCN(Cc2ccc(Nc3ncc(F)c(-c4cc(F)c5nc(C)n(C(C)C)c5c4)n3)nc2)CC1 + CC(Nc1ncnc2nc[nH]c12)c1cc2cccc(Cl)c2c(=O)n1-c1ccccc1,pIC50,second compound 0.0316 µM,< 6.00
same,pIC50,second compound 0.1 µM,< 6.00
same,pIC50,second compound 0.316 µM,< 6.00
same,pIC50,second compound 1 µM,< 6.00
same,pIC50,second compound 3.16 µM,< 6.00
same,pIC50,second compound 10 µM,< 6.00
same,"viability, T/C","second compound 0.0316 µM, first compound 0.00316 µM",92%
same,"viability, T/C","second compound 0.0316 µM, first compound 0.01 µM",90.9%
same,"viability, T/C",[1],100%
same,"viability, T/C",[2],98.6%
same,"viability, T/C",[3],150%
same,"viability, T/C",[4],109%
same,"viability, T/C","second compound 0.1 µM, first compound 0.00316 µM",91.5%
same,"viability, T/C","second compound 0.1 µM, first compound 0.01 µM",88.2%
same,"viability, T/C",[7],104%
same,"viability, T/C",[8],106%
same,"viability, T/C",[9],137%
same,"viability, T/C",[10],149%
same,"viability, T/C","second compound 0.316 µM, first compound 0.00316 µM",95.2%
same,"viability, T/C","second compound 0.316 µM, first compound 0.01 µM",93.9%
same,"viability, T/C",[13],98.2%
same,"viability, T/C",[14],100%
same,"viability, T/C",[15],147%
same,"viability, T/C",[16],106%
same,"viability, T/C","second compound 1 µM, first compound 0.00316 µM",98.5%
same,"viability, T/C","second compound 1 µM, first compound 0.01 µM",90.5%
same,"viability, T/C",[19],105%
same,"viability, T/C",[20],108%
same,"viability, T/C",[21],148%
same,"viability, T/C",[22],79.7%
same,"viability, T/C","second compound 3.16 µM, first compound 0.00316 µM",106%
same,"viability, T/C","second compound 3.16 µM, first compound 0.01 µM",93.9%
same,"viability, T/C",[25],123%
same,"viability, T/C",[26],124%
same,"viability, T/C",[27],144%
same,"viability, T/C",[28],86.8%
same,"viability, T/C","second compound 10 µM, first compound 0.00316 µM",111%
same,"viability, T/C","second compound 10 µM, first compound 0.01 µM",107%
same,"viability, T/C",[29],118%
same,"viability, T/C",[30],120%
same,"viability, T/C",[31],114%
same,"viability, T/C",[32],57.9%
